The source of these data is ChEMBL document CHEMBL2074499, “Cloning and functional expression of a human liver organic cation transporter” (Mol Pharmacol, 1997).

Series [1] has as its target T1, Solute carrier family 22 member 1 (Homo sapiens, UniProt O15245).
T1 sequence (O15245 whole entry): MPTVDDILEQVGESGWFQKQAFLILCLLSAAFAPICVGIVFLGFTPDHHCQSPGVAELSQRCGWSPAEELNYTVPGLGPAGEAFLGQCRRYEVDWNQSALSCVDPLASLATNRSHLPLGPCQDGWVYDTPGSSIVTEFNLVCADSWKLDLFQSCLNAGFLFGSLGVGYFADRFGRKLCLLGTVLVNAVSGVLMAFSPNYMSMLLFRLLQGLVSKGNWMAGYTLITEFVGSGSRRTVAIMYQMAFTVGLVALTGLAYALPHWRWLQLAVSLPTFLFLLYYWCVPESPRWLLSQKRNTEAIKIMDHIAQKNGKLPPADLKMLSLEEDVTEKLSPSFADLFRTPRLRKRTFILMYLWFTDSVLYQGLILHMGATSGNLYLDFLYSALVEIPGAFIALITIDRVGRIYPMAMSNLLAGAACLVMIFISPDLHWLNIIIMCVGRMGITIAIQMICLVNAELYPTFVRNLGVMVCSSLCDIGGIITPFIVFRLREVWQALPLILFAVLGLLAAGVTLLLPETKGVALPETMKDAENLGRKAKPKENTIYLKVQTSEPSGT
In words: TP_TRANSPORTER: inhibition of MPP+ uptake in Xenopus laevis oocytes. In kind it is functional, cell-based, Oocyte.

The target in series [2] is T1, Solute carrier family 22 member 1. Put plainly: TP_TRANSPORTER: inhibition of MPP+ uptake (MPP+: 0.85 uM, Verapamil: 5000 uM) in Xenopus laevis oocytes. The series is classed as functional, cell-based. To be noted: oocyte.
For series [3] the target is unchanged. In words: TP_TRANSPORTER: inhibition of MPP+ uptake (MPP+: 0.85 uM, Thymidine: 5000 uM) in Xenopus laevis oocytes. In kind it is functional, cell-based. Particulars: oocyte.
Series [4] has the same target. Put plainly: TP_TRANSPORTER: inhibition of MPP+ uptake (MPP+: 0.15 uM, Inosine: 1000 uM) in Xenopus laevis oocytes. The series is classed as functional, cell-based. Particulars: oocyte.
Series [5] shares this target. In words: TP_TRANSPORTER: inhibition of MPP+ uptake (MPP+: 0.85 uM, NMN: 5000 uM) in Xenopus laevis oocytes. In kind it is functional, cell-based. To be noted: oocyte.
Series [6] shares this target. In words: TP_TRANSPORTER: inhibition of MPP+ uptake (MPP+: 0.85 uM, Pancuronium: 1000 uM) in Xenopus laevis oocytes. In kind it is functional, cell-based. To be noted: oocyte.
Series [7] shares this target. Put plainly: TP_TRANSPORTER: inhibition of MPP+ uptake (MPP+: 0.85 uM, Procainamide: 5000 uM) in Xenopus laevis oocytes. In kind it is functional, cell-based. Particulars: oocyte.
For series [8] the target is unchanged. In words: TP_TRANSPORTER: inhibition of MPP+ uptake (MPP+: 0.85 uM, Quinidine: 1000 uM) in Xenopus laevis oocytes. Particulars: oocyte. The series is classed as functional, cell-based.
Series [9] shares this target. Put plainly: TP_TRANSPORTER: inhibition of MPP+ uptake (MPP+: 0.85 uM, Quinine: 1000 uM) in Xenopus laevis oocytes. The series is classed as functional, cell-based. To be noted: oocyte.
Substrate in series [10]: C[n+]1ccc(-c2ccccc2)cc1
In words: TP_TRANSPORTER: uptake in Xenopus laevis oocytes. The series is classed as functional, cell-based, Oocyte.

`CCN1/C(=C/c2ccc3ccccc3[n+]2CC)C=Cc2ccccc21` showed a Ki in series [1] of 4.4 µM.

Turning to `COc1ccc(CCN(C)CCCC(C#N)(c2ccc(OC)c(OC)c2)C(C)C)cc1OC` (configuration not stated), the Activity result in [2] is “inhibitor [+]”. With `Cc1cn([C@H]2C[C@H](O)[C@@H](CO)O2)c(=O)[nH]c1=O` [DOXRIBTIMINE], the Activity result in series [3] was “inhibitor [+]”. In the case of `OC[C@H]1O[C@@H](n2cnc3c(O)ncnc32)[C@H](O)[C@@H]1O` [INOSINE], the Activity result in series [4] is “inhibitor [+]”.

For `CNC(=O)c1cccnc1` [NICOTINYL METHYLAMIDE], the Activity entry in series [5] is “inhibitor [+]”. Take `CC(=O)O[C@H]1C[C@@H]2CC[C@@H]3[C@H](CC[C@@]4(C)[C@H]3C[C@H]([N+]3(C)CCCCC3)[C@@H]4OC(C)=O)[C@@]2(C)C[C@@H]1[N+]1(C)CCCCC1` [PANCURONIUM]: the Activity entry in series [6] was “inhibitor [+]”.

On to `CCN(CC)CCNC(=O)c1ccc(N)cc1` [PROCAINAMIDE], for which the Activity entry in series [7] is “inhibitor [+]”.

With `C=C[C@H]1C[N@@]2CC[C@H]1C[C@@H]2[C@@H](O)c1ccnc2ccc(OC)cc12` [QUINIDINE], the Activity result in [8] is “inhibitor [+]”.

On to `C=C[C@H]1C[N@@]2CC[C@H]1C[C@H]2[C@H](O)c1ccnc2ccc(OC)cc12` [QUININE], for which the Activity entry in series [9] is “inhibitor [+]”. In turn, `CC[N+](CC)(CC)CC` [TETRYLAMMONIUM] yielded a Ki in [1] of 163 µM. `CC(=O)O[C@H]1C[C@@H]2CC[C@@H]3[C@H](CC[C@@]4(C)[C@H]3C[C@H]([N+]3(C)CCCCC3)[C@@H]4OC(C)=O)[C@@]2(C)C[C@@H]1N1CCCCC1` [VECURONIUM]: the Ki in series [1] worked out at 120 µM.

B1: Solute carrier family 22 member 1 (Homo sapiens) (protein)
chain: MPTVDDILEQVGESGWFQKQAFLILCLLSAAFAPICVGIVFLGFTPDHHCQSPGVAELSQRCGWSPAEELNYTVPGLGPAGEAFLGQCRRYEVDWNQSALSCVDPLASLATNRSHLPLGPCQDGWVYDTPGSSIVTEFNLVCADSWKLDLFQSCLNAGFLFGSLGVGYFADRFGRKLCLLGTVLVNAVSGVLMAFSPNYMSMLLFRLLQGLVSKGNWMAGYTLITEFVGSGSRRTVAIMYQMAFTVGLVALTGLAYALPHWRWLQLAVSLPTFLFLLYYWCVPESPRWLLSQKRNTEAIKIMDHIAQKNGKLPPADLKMLSLEEDVTEKLSPSFADLFRTPRLRKRTFILMYLWFTDSVLYQGLILHMGATSGNLYLDFLYSALVEIPGAFIALITIDRVGRIYPMAMSNLLAGAACLVMIFISPDLHWLNIIIMCVGRMGITIAIQMICLVNAELYPTFVRNLGVMVCSSLCDIGGIITPFIVFRLREVWQALPLILFAVLGLLAAGVTLLLPETKGVALPETMKDAENLGRKAKPKENTIYLKVQTSEPSGT
Consider B1, for which the Km in series [10] came out at 14.6 µM.

What is called Ki is the equilibrium dissociation constant of an inhibitor or competing ligand from its target. A lower Ki goes with higher affinity. What is called Km is the substrate concentration at which the rate is half of its maximum.
